For this experiment, the target named is glucose-6-phosphate dehydrogenase-6-phosphogluconolactonase (Plasmodium falciparum 3D7). Put plainly: PfG6PD inhibitor potency, dose response, biochemical, fluorescence intensity (AID 504765). Conditions: Recombinant PfG6PD enzyme, fluorescence intensity (NADPH).

From PubChem BioAssay AID504765 (Sanford-Burnham Center for Chemical Genomics, 2011) come the findings set out here.

Values joined by “and” are separate entries in the source; they are usually repeats but may differ in a detail not shown here. Equal entries are not always repeated. Active and inactive are the calls of the source. How the calls were made is not given here. Some results are limits rather than exact numbers.

What is called IC50 is the point on the concentration scale where inhibition reaches its midpoint. Take `O=C(CNC(=O)c1cccs1)NCC(=O)OCC(=O)c1ccc([N+](=O)[O-])cc1`: the half-maximal inhibitory concentration (IC50) is 16.7 µM.
In the case of `O=C(CNC(=O)c1cccs1)OCC(=O)c1ccc([N+](=O)[O-])cc1` it was 13.9 µM; in that of `NNC(=O)CN1C(c2ccccc2Br)=Nc2ccc(Br)cc2C1c1ccccc1` (centres undefined), 3.38 µM.
Consider `Cc1cc(O)c(-c2cc(O)c(C)cc2O)cc1O`, for which the IC50 is 1.88 µM.
In the case of `Cc1cc(C)c2c(=O)n(CC(=O)Nc3ccc(Cl)cc3)sc2n1` it was 2.51 µM; in that of `Cc1cc(C)c[n+](C2=C([O-])c3ccccc3C(=O)/C2=N\S(=O)(=O)c2cccs2)c1`, 15.3 µM.
As for `CC(=O)Nc1ccc(S(=O)(=O)NNc2cccc(C)c2)cc1`, the IC50 result was “inactive”.
For `O=C(O)c1cc(N2C(=O)C=CC2=O)cc(N2C(=O)C=CC2=O)c1`, the IC50 is 4.34 µM.
`Cc1nc2c(o1)C(=O)c1ccccc1C2=Nc1ccccc1`: the 50% inhibitory concentration (IC50) was 7 µM.
On to `COc1cc(NCCCn2cnc3c(OCc4ccccc4)ncnc32)cc(OC)c1OC`, for which the IC50 is > 80 µM (inactive).
In the case of `O=C(Cn1sc2ccccc2c1=O)NC12CC3CC(CC(C3)C1)C2` it was 1.79 µM; in that of `Cc1cc(O)c(C(C)C)cc1N=Cc1ccc(N(C)C)cc1`, 4.4 µM; in that of `O=S(c1ccccc1O)S(=O)c1ccccc1O` (centres undefined), 4.89 µM.
With `COc1cc(N=c2ssnc2Cl)cc(OC)c1`, the concentration for half-maximal inhibition (IC50) is 13.2 µM.
In the case of `COc1ccc(CCn2c(NN=C(C)C)nc3c2c(=O)[nH]c(=O)n3C)cc1`, the IC50 was 4.82 µM.
Consider `O=C1NC(=O)N(c2ccccc2)C(=O)/C1=C/c1ccc([N+](=O)[O-])s1`, for which the IC50 is 10 µM.
Take `COC1(OC)C=CC(=O)C=C1NC(=O)c1ccccc1OC(C)=O`: the concentration for half-maximal inhibition (IC50) was 9.27 µM.
The same measure for `C=CCc1c(C)[nH]c(=S)c(C#N)c1C`: 15.3 µM; for `N#Cc1ccc(Oc2cccc3cccnc23)c([N+](=O)[O-])c1`: 5.66 µM.
Regarding `COc1ccc(-c2cn3cc(C)ccc3n2)cc1Br`, the IC50 is 9.91 µM.
Consider `Cn1c(=O)c2[nH]c(-c3ccccc3)c(O)c2n(C)c1=O`, for which the concentration for half-maximal inhibition (IC50) is 9.54 µM.
In the case of `O=C(Nc1nc(-c2ccncc2)cs1)C1COc2ccccc2O1` (centres undefined) it was “inactive”; in that of `Cc1nc(COC(=O)c2cc(O)c3ccccc3c2O)cs1`, 3.52 µM; in that of `CCN(CC)CCn1c2ccccc2c(=O)c2c(O)ccc(O)c21`, 2.39 µM.
Consider `CN(C)c1ccc(C=c2c3ccccc3n3c2c2ccccc2[n+]3C)cc1`, for which the IC50 was 16 µM.
Regarding `O=C(Nc1ccc(N2CCN(C(=O)c3ccco3)CC2)c(Cl)c1)c1cc2ccccc2o1`, the half-inhibitory concentration (IC50) was 10.3 µM.
As for `COc1ccc(-n2c(=S)[nH]c3c(sc(=S)n3-c3ccccc3)c2=O)c(OC)c1`, the IC50 entry was “inactive”.
In the case of `CN(C)C=Nc1ccc2nc3c(cc2c1)[nH]c1ccccc13` it was 9.98 µM; in that of `COC(=O)C1=C(C(=O)OC)SC2(S1)C(C(=O)OC)=C(C(=O)OC)Sc1c2ssc1=O`, 1.4 µM; in that of `Cc1no[n+]([O-])c1COc1cccc(/C=N/Nc2nncn2N)c1`, 6.7 µM.
Regarding `CN1C(=O)C(N=Nc2ccc([N+](=O)[O-])cc2)SC1=S` (centres undefined), the IC50 was 5.43 µM.
On to `Cc1ccc(-n2sc3ccccc3c2=O)cc1`, for which the concentration for half-maximal inhibition (IC50) was 8.63 µM.
Regarding `Cc1[nH]c2ccccc2c1/C=N/NC(=O)c1cccc(S(=O)(=O)Nc2ccccc2Cl)c1`, the concentration for half-maximal inhibition (IC50) is 8.71 µM.
On to `O=C(CSc1nc2ccc(Cl)cc2[nH]1)NC1CCCc2ccccc21` (centres undefined), for which the IC50 was 15.6 µM.
On to `Cc1ccc(S(=O)(=O)Nc2nc(C)c(C(=O)N/N=C/c3ccccc3)s2)cc1`, for which the 50% inhibitory concentration (IC50) was 4.58 µM.
As for `Cc1ccc(N2CC(C(=O)OCC(=O)c3ccc([N+](=O)[O-])cc3)CC2=O)cc1` (centres undefined), the IC50 was 8.7 µM.
For `COc1c2ccoc2c(OCC=C(C)C)c2oc(=O)ccc12`, the IC50 result is “inactive”.
As to `COc1ccc(N2CSC3=C(C#N)C(c4ccc(OC)c(OC)c4)CC(=O)N3C2)c(OC)c1` (centres undefined), the half-inhibitory concentration (IC50) was 5.21 µM.
`O=C(Nc1nnc(S(=O)(=O)N2CCCC2)s1)c1cccc([N+](=O)[O-])c1`: the concentration for half-maximal inhibition (IC50) is 4.17 µM.
As to `CCOC(=O)c1c(OCC)[nH]c2c1cc(O)c1ccccc12`, the IC50 result was “inactive”.
As for `O=C1C=CC(=O)N1c1ccc(N2CCCCC2)cc1`, the 50% inhibitory concentration (IC50) was 15.6 µM.
With `CCOC(=O)c1ccc(/[N+]([O-])=C/c2ccccc2)cc1`, the half-maximal inhibitory concentration (IC50) was 2.69 µM.
The same measure for `CCSc1nc2cc(S(=O)(=O)N3CCOCC3)ccc2o1`: “inactive”.
For `CCN(CC)c1ccc(C(=C2C=CC(=[N+](CC)CC)C=C2)c2ccc(N(CC)CC)cc2)cc1`, the IC50 was 10.3 µM.
Turning to `CCC1(C)CC(C(N)=S)CCO1` (centres undefined), the IC50 result is “inactive”.
In the case of `O=C1C(c2cc(=O)c3ccccc3[nH]2)=C(O)c2ccccc21`, the half-inhibitory concentration (IC50) is 8.25 µM.
Take `CCOC(=O)CSc1nnc(NC(=O)c2cccc([N+](=O)[O-])c2)s1`: the IC50 is 6.49 µM.
As to `Cc1ccc(S(=O)(=O)NNc2ccccc2)cc1`, the IC50 entry is “inactive”.
Regarding `Cc1[nH]c(=S)c(C#N)c(C)c1CCC#N`, the IC50 entry is “inactive”.
Consider `COC(=O)c1ccccc1NC1=C/C(=N\S(=O)(=O)c2cccs2)c2ccccc2C1=O`, for which the IC50 was 1.26 µM and 6.47 µM.
For `N#CC1=C(N)Oc2c(O)cc3ccccc3c2C1c1ccsc1` (centres undefined), the IC50 was 6.71 µM.
As for `Cc1ccccc1OCC(=O)N/N=C/c1ccc(Sc2nc3ccccc3s2)o1`, the IC50 is 16.8 µM.
The same measure for `COc1cc(N(C)C)ccc1C=c1c2ccccc2n2c1cc(-c1ccccc1)[n+]2C`: 9.08 µM.
For `Cc1ccc(/C=C/C(=O)Nc2ccc([N+](=O)[O-])c(NC(=O)/C=C/c3ccc(C)o3)c2)o1`, the IC50 was 4.84 µM.
For `Cc1ccc(NC(=O)c2cc(N3C(=O)C=CC3=O)ccc2Cl)cc1C`, the IC50 is 14.1 µM.
Consider `CCN(CC)c1ccc(C(=C2C=CC(=[N+](CC)CC)C=C2)c2ccccc2)cc1`, for which the IC50 is 11.7 µM.
As for `Cc1ccnc(-n2sc3ccccc3c2=O)n1`, the IC50 was 11.7 µM.
As to `O=C1C(Cl)=C(NCCc2ccccc2)C(=O)c2ccccc21`, the IC50 is 3.32 µM.
The same measure for `O=c1c2ccccc2sn1-c1cc(S(=O)(=O)N2CCOCC2)ccc1N1CCCC1`: 1.08 µM; for `O=C1C=CC(=O)N1CCNc1ncc(C(F)(F)F)cc1Cl`: 20 µM; for `O=C(N/N=C/c1cccc([N+](=O)[O-])c1)C(=O)N1CCCCCC1`: 5.45 µM.
For the compound `O=C(Nc1nnc(S(=O)(=O)N2CCOCC2)s1)c1cccc(Br)c1`, the concentration for half-maximal inhibition (IC50) is 5.58 µM.
As to `NC(=O)N/N=C/c1ccc(-n2nncc2-c2ccc(Cl)cc2)cc1`, the IC50 is 11.8 µM.
For `COc1ccc(C(=O)Nc2sc3c(c2C(=O)O)CC(C)(C)OC3)cc1`, the half-maximal inhibitory concentration (IC50) was 11 µM.
As for `O=c1c2ccc(F)cc2sn1-c1ccccc1`, the IC50 is 1.98 µM.
As for `CN(C)c1ccc(Cc2cc3c(O)ccc(O)c3cc(Cc3ccc(N(C)C)cc3)c2=O)cc1`, the IC50 is 2.05 µM.
The same measure for `COC(=O)CCC(=O)Nc1sc(Cc2ccccc2)c(C)c1C(N)=O`: “inactive”; for `O=C(CNc1ccc2c(c1)OCO2)N/N=C\c1cn(Cc2ccccc2)c2ccccc12`: “inactive”; for `CCNc1cc2c(cc1O)CCC1C2CCC2(C)C(O)CCC12` (centres undefined): “inactive”.
For `Cc1cc(C(=O)O)ccc1-n1c(C)cc(C=C2C(=O)c3ccccc3C2=O)c1C`, the IC50 is 7.14 µM.
`Cc1ccc(NC(=O)Cn2sc3nc(C)cc(C)c3c2=O)c(Cl)c1`: the IC50 is 2.09 µM.
In the case of `COc1cc(C(=O)ON=C2C=C(C)C(=O)C(C)=C2)cc(OC)c1OC`, the half-maximal inhibitory concentration (IC50) is 5.09 µM.
`Brc1cc2[nH]cnc2c2ccccc12`: the IC50 is 17.6 µM.
On to `O=C(CN1C(=O)C2C3C=CC(C3)C2C1=O)OCC(=O)c1ccc([N+](=O)[O-])cc1` (centres undefined), for which the IC50 is 9.71 µM.
Regarding `Cc1ccc(/C=C2\C(=O)NC(=S)N(c3ccccc3F)C2=O)s1`, the IC50 result is “inactive”.
As to `CN1CCN(C(=O)c2sc(=S)n(-c3ccccc3)c2N)CC1`, the IC50 was 7.25 µM.
Take `CC1=CC(C)(C)Nc2ccc(OC(=O)CN3C(=O)c4cccc5cccc(c45)C3=O)cc21`: the IC50 was 6.28 µM.
Turning to `O=C(CCSCCC(=O)NN=Cc1ccccc1)NN=Cc1ccccc1`, the IC50 is 7.76 µM.
The same measure for `COc1ccc(/C=C/c2nc3ccccc3n2C)cc1`: 8.04 µM; for `O=[N+]([O-])c1c(NCCCO)cc(Sc2nc3ccccc3s2)c2nonc12`: 12.5 µM; for `CC(=O)c1cccc(NC(=O)c2cnn(-c3ccccc3)c2C)c1`: 8.46 µM.
On to `CC(C)(C)NC(=O)COc1ccc(CNc2ccc3[nH]c(=O)[nH]c3c2)cc1`, for which the IC50 is 11.7 µM.
`COc1cccc(C=Nc2cc(C(C)C)c(O)cc2C)c1O`: the IC50 was 5.48 µM.
For the compound `COC(=O)[C@H](C)NC(=O)c1cc2c(cn1)[nH]c1ccccc12`, the IC50 entry is “inactive”.
In the case of `O=C(CCC(=O)OCC(=O)c1ccc([N+](=O)[O-])cc1)Nc1ccccc1Cl`, the IC50 is 6.61 µM.
As to `CC(C)c1nnc(NC(=O)c2cc3ccccc3o2)s1`, the 50% inhibitory concentration (IC50) is 16.5 µM.
As for `Cc1ccc(NC(=O)c2cc(C)n(-c3ccccc3)c2C)cc1`, the IC50 was 14.1 µM.
Regarding `Cc1cccc(C(=O)Nc2nnc(S(=O)(=O)N3CCCCCC3)s2)c1`, the 50% inhibitory concentration (IC50) was 6.58 µM.
For `COc1ccc(OC)c2c1C(=O)C(Cl)=C(Cl)C2=O`, the concentration for half-maximal inhibition (IC50) is 4.64 µM.
The same measure for `c1ccc(-c2cn3c(n2)CCc2ccc4cccnc4c2-3)cc1`: 8.54 µM.
On to `Cc1cnc(C=NNC(N)=S)c2cccc(N)c12`, for which the IC50 was 1.72 µM.
Regarding `CCOc1ccc(CNc2ccc(N3CCCC3)cc2)cc1`, the IC50 was 2.64 µM.
In the case of `C[C@H](CO)N1C[C@H](C)[C@@H](CN(C)C(=O)Nc2ccc(C(F)(F)F)cc2)Oc2c(cccc2N(C)C)C1=O` it was 5.05 µM; in that of `O=C(COc1ccccc1F)OCC(=O)c1ccc([N+](=O)[O-])cc1`, 12.4 µM.
Take `C[C@H](NC(N)=O)C(=O)Nc1ccc(N2CCOCC2)c(S(=O)(=O)Nc2ccc(Cl)cc2)c1`: the IC50 entry was “inactive”.
Turning to `N#C/C(C(=O)Nc1ccc(Cl)cc1)=C(/S)Nc1ccccc1`, the half-maximal inhibitory concentration (IC50) was 1.89 µM.
The same measure for `COc1cc(CNc2ccc(N3CCCC3)cc2)ccc1OCc1ccccc1F`: 2.39 µM; for `Cc1ccc(-n2sc3cc(F)ccc3c2=O)c(C)c1`: 1.43 µM; for `CN1CCc2cc(O)cc3c2[C@H]1Cc1ccc(O)c(O)c1-3`: 15 µM.
